Reference: publication PMC7513592 (RSC Medicinal Chemistry, 2020)
“Also recorded” adds a separate entry of the source.

Legend:
hTRPV1 = target: T1, hTRPV1 (Homo sapiens, UniProt Q8NER1); assay: TRPV1 FLIPR assay: capsaicin-activated Ca2+ influx in HEK-hTRPV1 cells; type: cell-based
T1 construct: expressed in transfected cells; host or cells: HEK293T / HEK293, transient
Procedure: hTRPV1 activity was measured using HEK293T cells transiently overexpressing TRPV1 as previously reported.6 Briefly, HEK293 cell were trypsinized and plated at 1.5 x10^4 cells/well onto Corning® 96-well black polystyrene clear bottom microplates (CLS3603 Sigma-Aldrich) coated with 100 μg/mL poly-D-lysine (P6407 Sigma-Aldrich) using 100 μL phenol-red free DMEM with 10% FBS and 2mM glutamine without antibiotics. Cells were incubated at 37 °C for 24 h. On the following day, transfection was performed using 200 ng of pcDNA 3.1 hTRPV1 and 0.6 μL Lipofectamine 2000 reagent/well. 24 h after the transfection, the medium was replaced with 90 µL of loading buffer (modified Krebs buffer containing 117 mM NaCl, 4.8 mM KCl, 1 mM MgCl2, 5 mM D-glucose, 10 mM HEPES, 1.8 mM CaCl2 and calcium-5 fluorescence dye (50 µL/mL loading buffer)). Cells were incubated in the loading buffer at 37 °C for 1 h in dark. Fluorescence Ca2+ measurements were carried out using FLIPR TETRA high-throughput, fluorescence microplate reader as described before. Stable baselines were established for 50 s before 10 µL of a 10X solution of compound 39 or the TRPV1-inhibitor capsazepine (CPZ) prepared in 1.8 mM CaCl2-containing Krebs buffer was robotically administered to the cells. Cells were incubated and fluorescence was monitored in the presence of compound for an additional 5 min before administration of the agonist in 1.8 mM CaCl2-containing Krebs buffer (final concentration of capsaicin in the assay plate was 100 nM). The activity of TRPV1 was measured by quantifying the area under the curve (AUC) of the fluorescence intensity, following administration of the agonist.
The current HEK-hTRPV1 method employs a constant concentration of Ca2+ (1.8 mM) in the assay buffer during the whole experiment. […]
of capsaicin (100 nM) the channel was activated and a high influx of Ca2+ was immediately recorded. The activation of the TRPV1 channel is supposed to occur through displacement of lipids in the transmembrane domain. […]
Fig S2. […] Quantification […]

HEK-hTRPV6 cells = type: cell-based, human; details: 10 μM, HEK-hTRPV6, 24 h
HEK293 wt cells = assay: Cadmium toxicity XTT assay, HEK293 wt; type: cell-based, human; details: 10 μM or 1 μM, 24 h
[1] = system: SKOV3, T47D, MCF-7, MDA-MB-231, HEK293 and HEK-hTRPV6 cells; assay: Antiproliferative activity, XTT, all six cell lines; type: cell-based, human; details: 6 days, up to 100 µM
From the text: Here, we compared the effects of 1 and 39 on SKOV3 and T47D, as well as on MCF-7 and MDA-MB-231 as two additional breast cancer cell lines with low levels of TRPV6.[13],[44] Previous studies have shown that RNA silencing (siRNA) of TRPV6 reduces T47D cell proliferation.[11],[13]
Note that HEK-hTRPV6 was more susceptible to 1 toxicity than HEK293 wt cells, which might be related to the fact that HEK-hTRPV6 overexpressing cells proliferate faster than HEK293 wt cells in a Ca^2+-dependent manner (Table S3 ^†).[46] […] This highlights the need for future studies to uncover the precise role of TRPV6 in cancer progression.
12. Antiproliferative activity
Unless specified cell culture reagents were obtained from Gibco, Life Technology, Switzerland. MCF -7 (human mammary adenocarcinoma), MDA-MB-231 (human mammary adenocarcinoma) were obtained from the ATCC cell bank. T47D (human mammary ductal carcinoma) cell line was obtained from NIH cell collection. These cells were grown in RPMI medium complemented with 10% FBS, 2mM L-Glutamine, 100 U/ml Penicillin and 100 μg/ml Streptomycin (Sigma) and 1% non-essential amino acids (Bioconcept, Switzerland). HEK293 (human embryonic kidney) and SKOV-3 (human ovary adenocarcinoma) cell lines were obtained from the ATCC cell bank. HEK-hTRPV6 and HEK293 and SKOV-3 were grown in DMEM medium supplemented with 10% FBS, 2mM L-Glutamine, 100 U/ml Penicillin and 100 μg/ml Streptomycin (Sigma) and 1% non-essential amino acids (Bioconcept, Switzerland).
The XTT assay was used to evaluate cell proliferation. Cells were plated at a density of 5 x 10^3 cells/well in 96-well plates and were incubated at 37 °C for 24 h. On the following day, the medium was carefully […]
Doxorubicin (10 µM) and DMSO (0.01 %) were used as positive and negative controls, respectively. All the treatments used the original cell medium (RPMI or DMEM), depending on the cell line. Cells were incubated for a total of 6 days at 37 °C with the medium (treatment and controls) being replaced by a freshly prepared solution every 48 h. Then, 25 μL of XTT (with 1.25 % of PMS) was added to each well and incubated at 37 °C for 2 h. Subsequently, the absorbance was read at 650 nm and subtracted from the […]
The resulting subtracted absorbance for each compound concentration (At) was expressed as a percentage of viable cells relative to the negative control (Ab), and the percentage of viable cells was plotted and the inhibition curves obtained by non-linear regression using the built-in log(inhibitor) vs. response-variable slope function (GraphPad® Prism, v. 5.0, San Diego, CA, US).
. Data shown are mean ± SEM (n =
3/concentration) of at least 3 independent experiments. ND = not determined, no inhibition of cell

T1 sequence (Q8NER1 whole entry): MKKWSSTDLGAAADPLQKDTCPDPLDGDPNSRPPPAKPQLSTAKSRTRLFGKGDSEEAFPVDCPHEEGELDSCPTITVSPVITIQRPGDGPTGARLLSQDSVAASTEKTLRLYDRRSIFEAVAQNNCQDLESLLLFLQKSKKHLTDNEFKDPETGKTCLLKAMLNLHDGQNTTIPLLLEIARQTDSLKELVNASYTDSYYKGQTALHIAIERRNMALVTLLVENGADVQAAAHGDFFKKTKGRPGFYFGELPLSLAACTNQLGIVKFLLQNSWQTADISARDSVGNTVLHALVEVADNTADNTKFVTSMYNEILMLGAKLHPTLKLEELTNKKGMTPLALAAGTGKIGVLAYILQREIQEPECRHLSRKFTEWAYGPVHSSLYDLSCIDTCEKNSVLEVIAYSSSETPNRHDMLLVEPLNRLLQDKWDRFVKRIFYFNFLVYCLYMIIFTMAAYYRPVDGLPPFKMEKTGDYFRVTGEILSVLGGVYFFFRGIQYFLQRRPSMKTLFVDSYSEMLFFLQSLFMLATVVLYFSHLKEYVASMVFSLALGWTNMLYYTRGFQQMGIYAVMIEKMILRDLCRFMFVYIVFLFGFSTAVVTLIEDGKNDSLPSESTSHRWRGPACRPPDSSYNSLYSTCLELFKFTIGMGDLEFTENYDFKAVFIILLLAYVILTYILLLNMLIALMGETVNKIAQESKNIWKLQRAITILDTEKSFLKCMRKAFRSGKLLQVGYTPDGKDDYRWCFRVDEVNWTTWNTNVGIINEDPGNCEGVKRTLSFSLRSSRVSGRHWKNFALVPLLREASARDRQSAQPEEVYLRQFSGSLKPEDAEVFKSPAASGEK

O=c1ccc(CN2CCN([C@H]3CC[C@@](O)(c4cccc(C(F)(F)F)c4)CC3)CC2)c[nH]1 [compound 39]
inhibition at 10 µM (hTRPV1; 100 nM capsaicin, read-out: inhibition of Ca2+ influx through capsaicin-activated hTRPV1): 2%
activation or inhibition of TRPV1 (hTRPV1; 10 µM): lack of activity on TRPV1; also recorded: did not activate nor inhibit
effect on Cd2+ toxicity (HEK-hTRPV6 cells): significantly reduced the toxic effect
effect on Cd2+ sensitivity (HEK293 wt cells): no effect
effect on cell proliferation / cellular toxicity [1]: did not observe any significant decrease in proliferation; also recorded: does not display any measurable cellular toxicity
effect on cell proliferation / cellular toxicity ([1]; listed as 3OG): does not exhibit any non-specific toxicity effects
